From patent US20250186467A1, “METHODS OF TREATING MEDICAL CONDITIONS USING STAMPIDINE OR A RELATED COMPOUND” (ROME Therapeutics, Inc., priority 2022, published 2025)

Tests used:
[1] = test system: THP1-Dual KO-TREX1 cells; test: CellTiter-Glo cell viability in THP1 TREX1 KO cells; type: cell-based; conditions: highest dose, with 1 μM 5-aza-2′-deoxycytidine, five days
Method: THP1 Dual TREX1 KO cells were purchased from Invivogen. The THP1-Dual™ KO-TREX1 cells were cultured in RPMI 1640, 10% heat-inactivated fetal bovine serum, 25 mM HEPES, 10 μg/mL Blasticidin, and 100 μg/mL Zeocin. THP1-Dual™ KO-TREX1 cells were treated with a dose titration of test compound in the presence of 1 μM 5-aza-2′-deoxycytidine (Sigma, cat #189825). Type 1 Interferon and cell viability were assessed after five days of treatment.
Stock solution of test compound was prepared in DMSO followed by a three-fold dilution in DMSO. Additional 50× dilution was prepared in cell culture media for each dilution. 10 μL of diluted test compound was then added to a 384-well plate.
THP1-Dual™ KO-TREX1 cells were treated with 1 μM 5-aza-2′-deoxycytidine. THP1-Dual™ KO-TREX1 cells (50 μL) were added to each well of the 384-well plate containing test compound titration at 10,000 cells/well. Cells were incubated at 37° C., 5% CO2 in a humidified incubator for five days. […] Luminescence was detected on a plate reader according to manufacturer's instructions. […]
The remaining cells were assessed for cell viability by adding 30 μl of CellTiter-Glo (Promega, 09683) solution to each well, and placed on a shaker for 10 minutes at room temperature. Luminescence was detected on a plate reader, according to manufacturer's instructions. […]

[2] = test system: phosphorylated TANK-binding kinase 1 (pTBK1); test: UVB-induced pTBK1 in HaCaT cells; type: cell-based; conditions: 96 hours of treatment before UVB, 24 hours post-UVB, ELISA
Method: HaCaT cells were plated in 6-well plates at a density of ˜100 k/well in HaCaT media (DMEM, optimized 1× (Addex Bio)+1% pen strep (Gibco)+5% heat inactivated fetal bovine serum (Gibco)). The cells were then cultured at 37° C. overnight. The next day, the cells were treated with the test compounds. Each test compound was diluted and added to media aliquots to provide desired concentrations. To add the test compound+media mixture, an equivalent amount of media from each well was aspirated and then replenished with the media dosed with the test compound. The cells were then cultured for an additional 96 hours with compound treatment prior to UVB exposure.
The media was then aspirated from the wells, with the remaining cells at least 80% confluent in each well. One mL of PBS was then added to each well, and the plate was then placed under a UVB lamp. A UVB sensor was positioned near the plate to register the plate's exposure. The cells were exposed to the UVB light until they reached 0.1 mJ/cm^2. Then the plate was covered and transferred to a sterile hood for processing. […]
A RIPA lysis buffer (#BP-115, Boston Bio-Products) was added to a Halt protease and […] inhibitor cocktail (#78440, ThermoFisher), and the mixture was cooled on ice. […] The protein concentration of the cell lysate was measured using Pierce™ Rapid Gold BCA Protein Assay Kit #AF3225 (ThermoFisher). […]

COC(=O)[C@H](C)N[P@](=O)(OC[C@@H]1C=C[C@H](n2cc(C)c(=O)[nH]c2=O)O1)Oc1ccc(Br)cc1 [Stampidine, methyl ((S)-(4-bromophenoxy)(((2S,5R)-5-(5-methyl-2,4-dioxo-3,4-dihydropyrimidin-1(2H)-yl)-2,5-dihydrofuran-2-yl)methoxy)phosphoryl)-L-alaninate]
reduction in cell viability [1]: ~15%
reduction of UVB-induced pTBK1 [2]: showed a reduction of UVB-induced phosphorylated TANK-binding kinase 1 (pTBK1)
